Here are results for one molecule from patent US20170226503A1, “Methods for Sequential Screening with Co-Culture Based Detection of Metagenomic Elements Conferring Heterologous Metabolite Secretion” (MetaMixis Biologics, Inc., priority 2014, published 2017).

This experiment concerns MIE p10c20. As to the kind of experiment: Validation of MIE p10c20 from retrofitted metagenomic library (fluorescence). The experiment is classed as cell-based. Conditions: 1 mM. From the text:
A metagenomic DNA library was “retroffited” as described herein and shown in FIG. 15 to identify a metabolite induced element (MIE). In FIG. 16 fluoresence plots are shown for a retroffited metagenomic library assayed for fluorescence emitted by the fluorescent marker. […] Induction was by a pool of pCoumaric acid, Vanillic acid and Vanillin. The circled data point that represents a fosmid clone harboring a candidate MIE (p10c20) which was selected for further investigation.

Turning to `O=C(O)/C=C/c1ccc(O)cc1` [pCoumaric acid], the “responsiveness of MIE p10c20” value is reported as “most responsive”.
